Assay results taken from ChEMBL document CHEMBL6096732 (J Med Chem, 2025).
Active and inactive are the calls of the source. The rule behind the calls is not given here.

Assays:
HCT-116 = assay: cells; format: functional, cell-based; conditions: Homo sapiens, HCT-116, 72 h
Description: Antiproliferative activity against human HCT-116 cells assessed as inhibition of cell growth incubated for 72 hrs by MTT assay

B16-F10 [1] = assay: Cell cycle arrest in mouse B16-F10 cells assessed as accumulation of cells in G1 phase incubated for 48 hrs by RNase A/PI staining based flow cytometric analysis; format: functional; conditions: dose 5-20 µM
[2] = Ratio of AUC (0 to t) to AUC (0 to infinity) in male Sprague-Dawley rat at 2 mg/kg, iv measured after 12 hrs by LC-MS/MS analysis; format: ADME, organism-based; conditions: in vivo
[3] = AUC (0 to 12 hrs) in male Sprague-Dawley rat at 2 mg/kg, iv measured after 12 hrs by LC-MS/MS analysis; format: ADME, organism-based; conditions: in vivo
B16-F10 [4] = assay: Antitumor activity against mouse B16-F10 cells implanted in male C57BL/6 mouse model assessed as tumor growth inhibition at 50 mg/kg, po administered once daily via gavage for 14 days relative to control; format: functional; conditions: B16-F10, 336 h, time 14 day, read-out: TGI
[5] = molecular target: T1, Histone deacetylase 3 (Mus musculus) (UniProt O88895); assay: In vivo inhibition of HDAC3 in male C57BL/6 mouse model implanted with mouse B16-F10 cells assessed as increase in acetylated histone H3 level at 50 mg/kg, po administered once daily via gavage for 14 days by Western blot analysis; format: functional, organism-based; conditions: time 14.0 day
T1 sequence (whole entry): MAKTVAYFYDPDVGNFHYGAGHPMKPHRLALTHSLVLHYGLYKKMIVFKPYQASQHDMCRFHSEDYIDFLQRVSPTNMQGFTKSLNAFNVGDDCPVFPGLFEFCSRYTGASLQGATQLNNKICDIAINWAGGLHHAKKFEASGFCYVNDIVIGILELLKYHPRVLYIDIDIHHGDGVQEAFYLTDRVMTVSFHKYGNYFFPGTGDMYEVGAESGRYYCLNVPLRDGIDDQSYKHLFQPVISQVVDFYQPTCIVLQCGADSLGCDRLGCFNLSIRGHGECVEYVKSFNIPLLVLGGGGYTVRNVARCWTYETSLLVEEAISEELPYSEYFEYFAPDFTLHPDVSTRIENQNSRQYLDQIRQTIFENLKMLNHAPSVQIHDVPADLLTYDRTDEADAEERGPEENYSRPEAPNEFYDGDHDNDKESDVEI

4T1 = assay: cells; format: functional, cell-based; conditions: Mus musculus, 4T1, 72 h
Mus musculus = assay: Immunomodulatory activity in male C57BL/6 mouse model implanted with mouse B16-F10 cells assessed as increase in CD3+ CD8+ T cells in tumor at 50 mg/kg, po co-administered with NP-19 as once daily dosage via gavage for 14 days by flow cytometric analysis (reference value: 3.2 %); format: functional; conditions: time 14 day
B16-F10 [6] = assay: Induction of DNA damage in mouse B16-F10 cells assessed as increase in gamma-H2AX expression at 2 uM incubated for 24 hrs in presence of olaparib by Western blot analysis; format: functional, cell-based
[7] = Toxicity in male C57BL/6 mouse implanted with mouse B16-F10 cells assessed as histopathological changes in kidney at 50 mg/kg, po administered once daily for 14 days by HandE staining based microscopic analysis; format: organism-based; conditions: in vivo, 336 h, time 14 day
B16-F10 [8] = assay: Inhibition of cell migration in mouse B16-F10 cells assessed as wound area at 20 uM incubated for 24 hrs by wound healing assay (reference value: 50.36 +/- 1.68 %); format: functional; set-up: scale not given: the % may be the effect or the level left
B16-F10 [9] = assay: Anti-invasive activity in mouse B16-F10 cells assessed as reduction in invasive capacity at 5 to 20 uM incubated for 24 to 48 hrs by crystal violet staining based microscopic analysis; format: functional, cell-based; conditions: dose 5-20 µM, time 24-48 hrs
B16-F10 [10] = assay: Upregulation of cathepsin B expression in mouse B16-F10 cells at 5 to 20 uM incubated for 24 hrs by Western blot analysis; format: functional, cell-based; conditions: dose 5-20 µM
[11] = Cmax in male Sprague-Dawley rat at 20 mg/kg, po measured after 12 hrs by LC-MS/MS analysis; format: ADME, organism-based; conditions: in vivo
[12] = VRT (0 to t) in male Sprague-Dawley rat at 2 mg/kg, iv measured after 12 hrs by LC-MS/MS analysis; format: ADME, organism-based; conditions: in vivo

IC50 (HCT-116): 6.82 µM
Ratio AUC [2]: 99.95%
AUC(0-t) at 12 h [3]: 857 ng·h/mL
inhibition [5]: Active
IC50 (4T1): 8.26 µM
Cmax [11]: 1390 ng/mL
VRT(t) [12]: 0.641 hr2
Structure (SMILES): CCCNNC(=O)c1ccc(Cn2c3ccccc3c3c(-c4ccccn4)nc4ccccc4c32)cc1
Activity (B16-F10 [1]): Dose-dependent-effect
inhibition in vivo at 50 mg/kg (B16-F10 [4]): 67%
Activity (Mus musculus): 32%
Activity (B16-F10 [6]): Active
Activity [7]: Non-toxic
Activity (B16-F10 [8]): 5.9%
Activity (B16-F10 [9]): Active
Activity (B16-F10 [10]): Active
